{"source": "patent US20240075049A1", "about": "(priority 2020, published 2024)", "key": {"[1]": {"assay": "adverse reaction in a treated coronavirus patient", "format": "in vivo, human", "conditions": "person, doxycycline 100 mg bd added to amantadine, ivermectin, zinc", "experimental": "A front-line worker and was diagnosed with coronavirus in association with fevers, aches and fatigue. They are commenced on amantadine orally using the standard capsule of […] once daily for ten days. […] They developed a rash to the doxycycline when added and this was changed to azithromycin 250 mg bd for the duration of the ten-day course."}, "[2]": {"assay": "ivermectin toxicity at high doses, relation to LD50", "format": "in vivo", "conditions": "2000 mcg/kg (120 mg in a 60 kg adult)"}, "[3]": {"conditions": "in vivo; cited from earlier work"}, "[4]": {"conditions": "more than 200 mcg/kg (12 mg), 2000 mcg/kg (120 mg) and above; cited from earlier work"}, "[5]": {"conditions": "in vivo; cited from earlier work", "remark": "listed apart in the source"}}, "data": [{"compound": "C[C@H]1c2cccc(O)c2C(=O)C2=C(O)[C@]3(O)C(=O)C(C(N)=O)=C(O)[C@@H](N(C)C)[C@@H]3[C@@H](O)[C@@H]21", "note": "[doxycycline]", "values": [{"measurement": "adverse reaction", "setting": "[1]", "result": "rash"}]}, {"compound": "ivermectin", "values": [{"measurement": "dose as percentage of the LD50", "setting": "[2]", "result": 7, "unit": "%"}, {"measurement": "excretion", "setting": "[3]", "result": "mostly in the feces"}, {"measurement": "toxicity at doses above the accepted therapeutic dose", "setting": "[4]", "result": "without any increase in ivermectin toxicity"}]}, {"compound": "CCN(CCO)CCCC(C)Nc1ccnc2cc(Cl)ccc12", "note": "(centres unmarked) [hydroxychloroquine]", "values": [{"measurement": "half-life", "setting": "[5]", "result": 40, "unit": "days"}]}]}
